In patent publication US9309242B2, “Substituted pyrido[2,3-b]pyrazines as FGFR kinase inhibitors” (priority 2011, dated 2016):
Like-named read-outs stand apart in the source and are kept apart here.

Key:
[1] = test system: Ba/F3-KDR-transfected cells; experiment: Ba/F3-KDR (plus IL3) cellular proliferation assay, counterscreen with 10 ng/ml murine IL3; type: cell-based; settings: read-out: BAF3-KDR (PLUS IL3) pIC50 (converted)
Procedure, shortened: (§1)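 Ba/F3-KDR cells (20000 per well) in phenol red-free RPMI-1640 with 10% FBS were exposed to compound for 24 hours at 37° C, 5% CO2. Alamar Blue (resazurin) was then added for 4 hours, and fluorescence was read at ex. 540 nm/em. 590 nm.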

FGFR3 (h) = FGFR3 (h) (Homo sapiens, UniProt P22607); experiment: FGFR3 (enzymatic assay), TR-FRET; type: biochemical; settings: average values if tested multiple times, read-out: FGFR 3 pIC50 (converted)
Text: Time-Resolved Fluorescence Resonance Energy Transfer (TR-FRET) signal (ex340 nm.

KDR (h) = KDR (h) (Homo sapiens, UniProt P35968); experiment: KDR (VEGFR2) (enzymatic assay), TR-FRET; type: biochemical; settings: average values if tested multiple times, read-out: VEGFR 2 (KDR) pIC50 (converted)
Chain of KDR (h) (P35968 20-1356): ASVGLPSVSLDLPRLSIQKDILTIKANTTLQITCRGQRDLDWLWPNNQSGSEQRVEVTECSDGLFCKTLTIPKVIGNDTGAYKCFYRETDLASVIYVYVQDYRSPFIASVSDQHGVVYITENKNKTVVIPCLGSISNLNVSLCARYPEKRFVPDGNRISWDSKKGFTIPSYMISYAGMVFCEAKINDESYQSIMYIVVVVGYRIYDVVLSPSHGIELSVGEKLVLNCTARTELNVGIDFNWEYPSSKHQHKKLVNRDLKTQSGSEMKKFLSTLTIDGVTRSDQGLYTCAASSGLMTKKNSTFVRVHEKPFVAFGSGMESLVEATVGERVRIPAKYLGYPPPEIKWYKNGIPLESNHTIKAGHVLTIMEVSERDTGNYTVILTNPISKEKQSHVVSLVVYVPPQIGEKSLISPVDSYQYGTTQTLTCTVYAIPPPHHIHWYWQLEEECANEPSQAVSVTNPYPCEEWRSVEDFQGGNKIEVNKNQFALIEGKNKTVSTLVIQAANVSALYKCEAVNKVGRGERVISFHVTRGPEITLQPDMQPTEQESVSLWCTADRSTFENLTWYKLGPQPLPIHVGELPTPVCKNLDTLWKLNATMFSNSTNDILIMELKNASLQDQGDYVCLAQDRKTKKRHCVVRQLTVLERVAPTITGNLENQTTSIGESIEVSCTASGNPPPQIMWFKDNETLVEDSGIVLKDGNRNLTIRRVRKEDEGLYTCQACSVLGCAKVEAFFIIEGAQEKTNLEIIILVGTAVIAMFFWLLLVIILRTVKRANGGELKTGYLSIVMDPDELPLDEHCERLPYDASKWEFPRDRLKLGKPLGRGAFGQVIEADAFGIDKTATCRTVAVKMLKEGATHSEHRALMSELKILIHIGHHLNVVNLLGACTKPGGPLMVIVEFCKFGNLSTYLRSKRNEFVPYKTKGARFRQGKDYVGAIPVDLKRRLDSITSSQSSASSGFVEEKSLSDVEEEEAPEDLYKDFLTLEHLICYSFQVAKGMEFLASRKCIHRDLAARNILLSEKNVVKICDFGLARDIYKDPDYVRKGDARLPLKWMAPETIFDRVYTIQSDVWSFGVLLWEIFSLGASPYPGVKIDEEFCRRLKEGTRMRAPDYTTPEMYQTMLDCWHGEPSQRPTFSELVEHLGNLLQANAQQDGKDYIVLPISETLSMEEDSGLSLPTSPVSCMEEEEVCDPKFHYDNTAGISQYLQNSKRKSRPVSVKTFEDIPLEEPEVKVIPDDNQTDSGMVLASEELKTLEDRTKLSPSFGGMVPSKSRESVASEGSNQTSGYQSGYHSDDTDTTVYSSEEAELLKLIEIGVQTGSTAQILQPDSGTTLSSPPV
Procedure, shortened: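 Enzyme at 150 ng/ml was incubated 120 min at room temperature with 500 nM Btn-Flt3 peptide and 3 μM ATP in 50 mM HEPES pH 7.5, 6 mM MnCl2, 1 mM DTT, 0.1 mM Na3VO4, 0.01% Triton-X-100, 1% DMSO final. EDTA stop with Eu-anti-P-Tyr/SA-XL-665, 60 min; TR-FRET read in RFU.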

[2] = biological target: T1, Ba/F3-FGFR1-transfected cells (Homo sapiens, UniProt P11362); experiment: Ba/F3-FGFR1 (minus IL3) cellular proliferation assay, Alamar Blue; type: cell-based
T1 construct: BAF3-FGFR1 (MIN IL3) pIC50; other: minus IL3
T1 sequence (P11362 whole entry, change not shown): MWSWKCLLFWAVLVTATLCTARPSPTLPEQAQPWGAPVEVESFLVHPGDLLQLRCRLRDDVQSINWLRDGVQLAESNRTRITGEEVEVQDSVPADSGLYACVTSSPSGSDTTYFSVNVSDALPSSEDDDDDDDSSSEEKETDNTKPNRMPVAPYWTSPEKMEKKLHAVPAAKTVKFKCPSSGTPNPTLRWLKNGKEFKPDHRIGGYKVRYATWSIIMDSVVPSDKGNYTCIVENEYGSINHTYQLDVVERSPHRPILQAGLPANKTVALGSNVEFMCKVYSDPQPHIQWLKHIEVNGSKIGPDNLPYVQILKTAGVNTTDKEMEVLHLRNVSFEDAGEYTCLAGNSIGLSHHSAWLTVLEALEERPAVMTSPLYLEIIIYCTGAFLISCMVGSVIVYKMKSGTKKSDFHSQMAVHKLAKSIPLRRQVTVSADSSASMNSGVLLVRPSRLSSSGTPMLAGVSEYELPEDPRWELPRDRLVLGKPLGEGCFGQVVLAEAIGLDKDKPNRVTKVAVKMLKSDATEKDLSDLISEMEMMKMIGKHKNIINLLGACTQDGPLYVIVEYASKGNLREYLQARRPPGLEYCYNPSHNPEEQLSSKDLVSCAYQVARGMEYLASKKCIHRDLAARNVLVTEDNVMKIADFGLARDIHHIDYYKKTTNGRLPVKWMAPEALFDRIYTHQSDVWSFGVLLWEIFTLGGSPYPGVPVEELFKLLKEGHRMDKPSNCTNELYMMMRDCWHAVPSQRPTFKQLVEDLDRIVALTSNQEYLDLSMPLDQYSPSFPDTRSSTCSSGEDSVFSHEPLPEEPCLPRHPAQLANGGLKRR
Procedure, shortened: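 Compound is dispensed first, then FGFR1-transfected Ba/F3 cells are added at 20000 per well in phenol red-free RPMI-1640 containing 10% FBS. After 24 h at 37 °C, Alamar Blue is added for 4 h and fluorescence is measured at 540/590 nm.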

[3] = test system: Ba/F3-FGFR1-transfected cells; experiment: Ba/F3-FGFR1 (plus IL3) cellular proliferation assay, counterscreen with 10 ng/ml murine IL3; type: cell-based; settings: read-out: BAF3-FGFR1 (PLUS IL3) pIC50 (converted)
Procedure, shortened: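 Ba/F3-FGFR1 cells (20000/well) in RPMI-1640 with 10% FBS exposed to compound for 24 h at 37° C., 5% CO2, then Alamar Blue (resazurin) added for 4 h; fluorescence read at ex 540/em 590 nm. Counterscreen run identically with 10 ng/ml murine IL3.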

[4] = biological target: T2, Ba/F3-KDR-transfected cells (Homo sapiens, UniProt P35968); experiment: Ba/F3-KDR (minus IL3) cellular proliferation assay, Alamar Blue; type: cell-based
T2 construct: BAF3-KDR (MIN IL3) pIC50; other: minus IL3
Procedure, shortened: as §1

FGFR2 (h) = FGFR2 (h) (Homo sapiens, UniProt P21802); experiment: FGFR2 (enzymatic assay), TR-FRET; type: biochemical; settings: enzymatic assay; average values if tested multiple times; read-out: FGFR 2 pIC50 (converted)
Procedure, shortened: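 Compound (1% DMSO final) was combined with FGFR2 (h), 150 ng/ml, plus 0.4 μM ATP and 500 nM biotin-Flt3 in Mn2+-containing HEPES buffer at pH 7.5.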

FGFR1 (h) = FGFR1 (h) (Homo sapiens, UniProt P11362); experiment: FGFR1 (enzymatic assay), TR-FRET; type: biochemical; settings: average values if tested multiple times, read-out: FGFR 1 pIC50 (converted)
Chain of FGFR1 (h) (P11362 22-822): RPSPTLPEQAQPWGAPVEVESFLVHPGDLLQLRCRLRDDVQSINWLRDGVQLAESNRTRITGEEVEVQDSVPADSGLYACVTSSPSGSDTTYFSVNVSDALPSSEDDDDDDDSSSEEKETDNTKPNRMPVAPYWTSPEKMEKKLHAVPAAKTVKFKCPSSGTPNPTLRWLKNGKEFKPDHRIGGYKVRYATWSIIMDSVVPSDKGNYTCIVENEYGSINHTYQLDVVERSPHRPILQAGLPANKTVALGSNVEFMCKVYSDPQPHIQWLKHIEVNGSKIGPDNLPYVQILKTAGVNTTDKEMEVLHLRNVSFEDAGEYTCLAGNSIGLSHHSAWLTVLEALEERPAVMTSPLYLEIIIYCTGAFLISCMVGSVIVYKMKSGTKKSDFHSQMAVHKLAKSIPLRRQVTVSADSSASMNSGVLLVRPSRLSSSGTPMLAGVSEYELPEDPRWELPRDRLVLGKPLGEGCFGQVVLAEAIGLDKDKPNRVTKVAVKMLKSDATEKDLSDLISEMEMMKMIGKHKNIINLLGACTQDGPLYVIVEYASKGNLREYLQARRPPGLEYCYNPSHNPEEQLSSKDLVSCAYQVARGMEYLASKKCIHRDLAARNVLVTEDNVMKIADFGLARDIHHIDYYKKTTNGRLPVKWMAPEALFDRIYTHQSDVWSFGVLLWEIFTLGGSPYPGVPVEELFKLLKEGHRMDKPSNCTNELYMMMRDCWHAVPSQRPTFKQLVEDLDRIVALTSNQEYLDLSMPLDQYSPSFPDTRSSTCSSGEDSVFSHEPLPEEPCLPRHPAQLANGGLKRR

FGFR4 (h) = FGFR4 (h) (Homo sapiens, UniProt P22455); experiment: FGFR4 (enzymatic assay), TR-FRET; type: biochemical; settings: FGFR 4 pIC50, enzymatic assay; average values if tested multiple times
Chain of FGFR4 (h) (P22455 22-802): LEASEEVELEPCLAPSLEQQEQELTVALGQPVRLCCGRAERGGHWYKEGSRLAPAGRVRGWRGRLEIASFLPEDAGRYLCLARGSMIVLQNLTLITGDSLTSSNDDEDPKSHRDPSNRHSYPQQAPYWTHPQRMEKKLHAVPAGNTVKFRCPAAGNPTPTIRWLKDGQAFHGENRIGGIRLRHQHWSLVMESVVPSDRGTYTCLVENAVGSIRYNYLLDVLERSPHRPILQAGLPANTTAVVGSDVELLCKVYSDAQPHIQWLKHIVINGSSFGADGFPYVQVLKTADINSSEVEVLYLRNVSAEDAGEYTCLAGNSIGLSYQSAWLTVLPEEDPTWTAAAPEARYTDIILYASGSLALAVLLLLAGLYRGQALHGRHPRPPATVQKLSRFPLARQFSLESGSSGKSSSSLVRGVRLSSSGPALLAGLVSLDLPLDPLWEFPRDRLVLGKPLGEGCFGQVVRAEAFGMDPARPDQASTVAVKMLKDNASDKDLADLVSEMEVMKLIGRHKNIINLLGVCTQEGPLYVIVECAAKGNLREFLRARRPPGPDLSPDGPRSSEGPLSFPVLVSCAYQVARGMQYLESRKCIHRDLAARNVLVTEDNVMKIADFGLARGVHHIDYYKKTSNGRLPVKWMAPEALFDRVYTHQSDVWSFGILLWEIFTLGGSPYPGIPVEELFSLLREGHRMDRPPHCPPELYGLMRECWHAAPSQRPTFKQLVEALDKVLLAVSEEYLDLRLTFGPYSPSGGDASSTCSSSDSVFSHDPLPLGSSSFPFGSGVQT

[5] = biological target: T3, Ba/F3-FGFR3-transfected cells (Homo sapiens, UniProt P22607); experiment: Ba/F3-FGFR3 (minus IL3) cellular proliferation assay, Alamar Blue; type: cell-based
T3 construct: BAF3-FGFR3 (MIN IL3) pIC50; other: minus IL3
T3 sequence (P22607 whole entry, change not shown): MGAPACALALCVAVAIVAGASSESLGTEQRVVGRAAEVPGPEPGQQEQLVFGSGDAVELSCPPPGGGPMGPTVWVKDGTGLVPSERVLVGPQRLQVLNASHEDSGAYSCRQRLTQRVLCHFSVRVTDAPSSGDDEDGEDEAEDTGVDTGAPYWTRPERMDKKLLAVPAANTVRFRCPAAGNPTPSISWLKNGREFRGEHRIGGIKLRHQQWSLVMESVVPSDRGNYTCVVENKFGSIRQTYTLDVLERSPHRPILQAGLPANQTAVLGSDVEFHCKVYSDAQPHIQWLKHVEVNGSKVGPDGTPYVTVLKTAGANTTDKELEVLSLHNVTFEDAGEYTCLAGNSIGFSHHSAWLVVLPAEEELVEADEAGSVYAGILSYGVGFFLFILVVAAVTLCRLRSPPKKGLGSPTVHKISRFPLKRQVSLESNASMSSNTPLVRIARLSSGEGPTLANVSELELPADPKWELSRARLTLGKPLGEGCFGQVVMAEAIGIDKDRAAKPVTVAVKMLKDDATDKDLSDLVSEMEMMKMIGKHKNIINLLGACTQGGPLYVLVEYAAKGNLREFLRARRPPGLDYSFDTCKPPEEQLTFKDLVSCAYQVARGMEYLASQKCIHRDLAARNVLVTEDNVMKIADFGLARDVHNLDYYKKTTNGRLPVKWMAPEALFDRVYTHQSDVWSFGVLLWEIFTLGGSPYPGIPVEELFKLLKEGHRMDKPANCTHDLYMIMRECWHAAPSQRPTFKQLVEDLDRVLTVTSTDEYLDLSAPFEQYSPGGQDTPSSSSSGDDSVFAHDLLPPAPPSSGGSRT
Procedure, shortened: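 Compound dilutions were dispensed first, then 20000 FGFR3-transfected Ba/F3 cells per well in serum-containing RPMI-1640 were added. After 24 h incubation at 37° C, Alamar Blue was applied for 4 h before relative fluorescence units were recorded. In the minus-IL3 format cells grow without cytokine; the other format contains 10 ng/ml murine IL3.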

[6] = plus IL3 (10 ng/ml murine IL3, counterscreen)

| SMILES | IC50 [1, 6] [nM] | IC50 (FGFR3 (h)) [nM] | IC50 (KDR (h)) [nM] | BAF3-FGFR1 (MIN IL3) pIC50 [2] | IC50 [3, 6] [nM] | BAF3-KDR (MIN IL3) pIC50 [4] | IC50 (FGFR2 (h)) [nM] | IC50 (FGFR1 (h)) [nM] | IC50 (FGFR4 (h)) [nM] | BAF3-FGFR3 (MIN IL3) pIC50 [5] | IC50 [1] [nM] | IC50 [3] [nM] |
| --- | --- | --- | --- | --- | --- | --- | --- | --- | --- | --- | --- | --- |
| COc1cc(OC)c(F)c(N(CCO)c2ccc3ncc(-c4cnn(C)c4)nc3n2)c1F [Compound 20] | > 10000 | 1.58 | 316 | 8.35 | > 10000 | 6.53 | 126 | 25.1 | 3.98 | 8.15 | – | – |
| COc1cc(OC)c(F)c(N(Cc2ncc[nH]2)c2ccc3ncc(-c4cnn(C)c4)nc3n2)c1 [Compound 23] | > 10000 | 1.07 | 7.08 | 8.85 | > 10000 | 6.74 | 1.45 | 0.741 | 1 | ~8.40 | – | – |
| COc1cc(OC)cc(N(Cc2ncc[nH]2)c2ccc3ncc(-c4cnn(C)c4)nc3n2)c1 [Compound 24] | > 10000 | 0.603 | 10.7 | 8.46 | > 10000 | 6.22 | 1.12 | 0.55 | 0.741 | 8.20 | – | – |
| COc1cc(OC)cc(N(CC#Cc2ncccc2OC)c2ccc3ncc(-c4cnn(C)c4)nc3n2)c1 [Compound 26] | > 10000 | 39.8 | 501 | 6.8 | > 10000 | <5 | 63.1 | 50.1 | 63.1 | ~5.55 | – | – |
| Cn1cc(-c2cnc3ccc(N(Cc4ncc[nH]4)c4cc(F)cc(F)c4)nc3n2)cn1 [Compound 27] | > 10000 | 3.89 | 501 | 6.14 | > 10000 | <5 | 6.61 | 19.1 | 11.2 | ~6.54 | – | – |
| COc1cc(OC)c(F)c(N(Cc2cn(S(=O)(=O)N(C)C)cn2)c2ccc3ncc(-c4cnn(C)c4)nc3n2)c1 [Compound 36] | > 10000 | 1.7 | 27.5 | 7.72 | > 10000 | 5.67 | 3.98 | 1.55 | 1.48 | ~7.57 | – | – |
| COc1cc(/N=c2\ccc3ncc(-c4cnn(C)c4)nc3n2CCNC(C)C)c(F)c(OC)c1 [Compound 37] | > 10000 | 8.71 | 45.7 | 7.78 | > 10000 | 6.11 | 4.47 | 1.62 | 15.5 | ~7.65 | – | – |
| CNCCn1/c(=N/c2cc(OC)cc(OC)c2F)ccc2ncc(-c3cnn(C)c3)nc21 [Compound 38] | > 10000 | 4.9 | 74.1 | 6.92 | > 10000 | 5.13 | 4.57 | 2.45 | 17.8 | 6.27 | – | – |
| CNCCN(c1ccc2ncc(-c3cnn(C)c3)nc2n1)c1cc(OC)cc(OC)c1F [Compound 39] | – | 3.98 | 46.8 | 7.97 | – | ~6.19 | 5.37 | 2.19 | 11 | ~7.61 | > 10000 | > 10000 |
| COc1cc(OC)c(F)c(N(CCO)c2ccc3ncc(-c4cnn(C)c4)nc3n2)c1 [Compound 40] | > 10000 | 0.646 | 17.4 | 7.80 | > 10000 | 6.00 | 1.48 | 0.724 | 1.82 | 7.84 | – | – |
| COc1cc(OC)c(F)c(N(Cc2c[nH]cn2)c2ccc3ncc(-c4cnn(C)c4)nc3n2)c1 [Compound 41] | > 10000 | 0.589 | 5.37 | 7.99 | > 10000 | 6.70 | 1.32 | 0.363 | 0.759 | 8.08 | – | – |
| COc1cc(OC)c(Cl)c(N(Cc2ncc[nH]2)c2ccc3ncc(-c4cnn(C)c4)nc3n2)c1 [Compound 42] | > 10000 | 2.14 | 8.91 | 8.57 | > 10000 | 6.89 | 2.04 | 1.38 | 3.02 | ~8.3 | – | – |
| CNCCn1/c(=N/c2c(F)cccc2F)ccc2ncc(-c3cnn(C)c3)nc21 [Compound 44] | > 10000 | ~794 | > 1000 | 5.12 | > 10000 | <5 | 219 | 490 | 2820 | <5 | – | – |
| COc1cc(/N=c2\ccc3ncc(-c4cnn(C)c4)nc3n2CC2CCC(=O)N2)c(F)c(OC)c1 (stereo not drawn) [Compound 45] | > 10000 | 1.35 | 13.5 | 7.14 | > 10000 | ~5.96 | 1.91 | 1.48 | 3.98 | 7.07 | – | – |
| COc1cc(OC)c(F)c(N(CC2CCC(=O)N2)c2ccc3ncc(-c4cnn(C)c4)nc3n2)c1 (stereo not drawn) [Compound 46] | > 10000 | 1.51 | 41.7 | 7.33 | > 10000 | 5.35 | 2.45 | 1.82 | 3.89 | 7.42 | – | – |
| COc1cc(OC)cc(N(CC2CCC(=O)N2)c2ccc3ncc(-c4cnn(C)c4)nc3n2)c1 (stereo not drawn) [Compound 49] | > 10000 | 1.62 | 60.3 | 6.78 | > 10000 | 5.16 | 1.95 | 3.24 | 6.31 | ~6.85 | – | – |
| COCC(O)CN(c1ccc2ncc(-c3cnn(C)c3)nc2n1)c1c(F)c(OC)cc(OC)c1F (stereo not drawn) [Compound 50] | > 10000 | 3.63 | 21.9 | 8.10 | > 10000 | 6.23 | 3.89 | 1.74 | 3.24 | ~8.11 | – | – |
| COCC(O)Cn1c(=Nc2c(F)c(OC)cc(OC)c2F)ccc2ncc(-c3cnn(C)c3)nc21 (stereo not drawn) [Compound 51] | > 10000 | 0.501 | 7.76 | 8.48 | > 10000 | 5.93 | 1.29 | 0.589 | 0.525 | ~8.03 | – | – |
